Experimental findings from US20080249303A1 (WYETH, priority 2007, published 2008) are described below.

Data set [1] can be described thus: Bazedoxifene acetate recovery in different extraction media, XRD peak area after tablet extraction. Type of data set: physicochemical. The conditions noted are these: XRD peak at 12.8° (Form A).
Assay in data set [2]: as above
The class given is physicochemical. As to conditions: 1.0 mL/tablet, XRD peak at 12.8° (Form A). How it is done: The coatings of three of the tablets were removed. The resulting tablets were then placed in a small beaker. About 3.0 ml of extraction medium solution was added to the beaker to produce a mixture. The mixture was broken up and stirred for about 5 to about 15 minutes. The resulting mixture was filtered and washed with an additional 3.0 ml of extraction medium solution three times to produce a solid (filtrand). The recovered solid was dried at about 40° C. overnight. The dried solid was grinded and pressed into pellets for XRD measurement. This procedure can be scaled up or down for various quantities of BZA tablets. This procedure was employed for the samples found in Table 1.
X-Ray Powder Diffraction analyses were carried out on samples prepared according to Examples 1 and 2 using a Bruker D8 Discover X-ray diffractometer with GADDS. The diffractometer power was set at 40 kV and 40 mA. The collimator diameter of the instrument was about 0.8 mm and the detector-to-sample distance was set at about 30 cm. The X-ray incident angle relative to the pellet/tablet surface was about 40 and the detection angle relative to the pellet/tablet surface was about 16±0.2°. Data were collected at about 120 minutes to about 240 minutes.
The following table illustrates the results of experiments using the extraction methods of Example 1. The extractions were performed using different extraction media and the results were measured in terms of peak area of bazedoxifene using XRD as described in Example 3.

`Cc1c(-c2ccc(O)cc2)n(Cc2ccc(OCCN3CCCCCC3)cc2)c2ccc(O)cc12` [Bazedoxifene acetate, 1-[4-(2-azepan-1-yl-ethoxy)-benzyl]-2-(4-hydroxy-phenyl)-3-methyl-1H-indol-5-ol acetic acid]: the “Peak Area of Bazedoxifene” value in data set [1] (Experiment 1, Millipore Water, pH 5.9, 2.50 mL/tablet) is on record as 3.3 count · degree; in data set [1] (Experiment 2, Millipore Water, pH 5.9, 1.67 mL/tablet), 4.9 count · degree; in data set [1] (Experiment 3, Diluted Acetic Acid, pH 1.96, 2.50 mL/tablet), “No Detection”; in data set [1] (Experiment 5, Millipore Water, pH 5.9, 0.83 mL/tablet), 11.6 count · degree; in data set [2] (Experiment 6, 0.50 M Ammonium Acetate, pH 6.20), 22.7 count · degree; in data set [2] (Experiment 7, 0.125 M Ammonium Acetate + 0.375 M Sodium Acetate, pH 6.85) it was 23.1 count · degree. In addition, the “Peak Area of Bazedoxifene” value in data set [2] (Experiment 8, 0.05 M Ammonium Acetate + 0.45 M Sodium Acetate, pH 7.18) was 32.0 count · degree; in data set [2] (Experiment 9, 0.50 M Sodium Acetate, pH 8.34) it was 36.2 count · degree; in data set [2] (Experiment 10, 0.50 M Sodium Chloride, pH 9.20 adjusted by Sodium Hydroxide) it was 21.8 count · degree.
